For this test, the system named is Wheat plants (Trificum aestivum cv. Monopol). The test can be described thus: Growth-promoting effect on wheat plants after foliar treatment. In kind it is in vivo. The following applies: for Shoot-DW / Shoot-FW: 750 l/ha, greenhouse, mean of six pots with ten plants; for Shoot-DW / Shoot-FW / Shoot-DW % of control / Shoot-FW % of control: harvest after 18 days; for Shoot-DW % of control / Shoot-FW % of control: control = 100.0; for plant health (higher yields and increased plant vigor based on fresh- and dry weights) / tillering: wheat, foliar treatment, 15 and 7.5 g ai/ha. The method, then: Wheat plants (Trificum aestivum cv. Monopol) were grown in soil with ten plants per pot (13 cm diameter) under greenhouse conditions. Plants at the 2nd leaf stage were sprayed with aqueous solutions of formulated compounds: • Compound 1=4-Fluoro-N-[2-(2-fluoro-benzoylamino)-1-methylcarbamoyl-ethyl]-2-trifluoromethyl-benzamide • Compound 2=4-Fluoro-N-[2-(3-fluoro-2-methyl-phenyl)-2-hydroxy-1-methylcarbamoyl-ethyl]-2-trifluoromethyl-benzamide The compounds were applied at two different dose rates (15 and 7.5 g ai/ha) and the spray volume was 750 l/ha. Six replicate pots with ten plants each were used per treatment. After 18 days plants were harvested and growth parameters were determined. The recorded parameters were fresh weight (FW) and dry weight (DW). Mean values of results, standard deviation (SD) and percentage to control were calculated.

The mark [1] stands for this setting: 7.5 g ai/ha foliar spray at 2nd leaf stage.
[2] abbreviates: 15 g ai/ha foliar spray at 2nd leaf stage.

Molecules are shown by their SMILES.

Turning to `CNC(=O)C(CNC(=O)c1ccccc1F)NC(=O)c1ccc(F)cc1C(F)(F)F` (centres unmarked) [Compound 1, 4-Fluoro-N-[2-(2-fluoro-benzoylamino)-1-methylcarbamoyl-ethyl]-2-trifluoromethyl-benzamide], the “plant health (higher yields and increased plant vigor based on fresh- and dry weights)” value is listed as “strongly increase the plant health”; the tillering result is recorded as “increase in tillering”. Besides, under setting [1], the Shoot-DW is recorded as 3.8 g and the Shoot-FW worked out at 40.6 g. Under “7.5 g ai/ha foliar spray”, the “Shoot-DW % of control” value was 134.9 % of control and the “Shoot-FW % of control” value is given as 132.7 % of control. Moreover, under setting [2], the Shoot-DW turned out to be 3.7 g and the Shoot-FW was determined as 38.8 g. In addition, under “15 g ai/ha foliar spray”, the “Shoot-DW % of control” value is 131.0 % of control and the “Shoot-FW % of control” value is on record as 126.9 % of control.
`CNC(=O)C(NC(=O)c1ccc(F)cc1C(F)(F)F)C(O)c1cccc(F)c1C` (centres unmarked) [Compound 2, 4-Fluoro-N-[2-(3-fluoro-2-methyl-phenyl)-2-hydroxy-1-methylcarbamoyl-ethyl]-2-trifluoromethyl-benzamide]: the “plant health (higher yields and increased plant vigor based on fresh- and dry weights)” value is reported as “strongly increase the plant health”; the tillering result is “increase in tillering”. Under setting [1], this molecule yielded a Shoot-DW of 3.9 g and a Shoot-FW of 40.2 g. In addition, where the note is “7.5 g ai/ha foliar spray”, the “Shoot-DW % of control” value was 138.6 % of control and the “Shoot-FW % of control” value is 131.4 % of control. Under setting [2], this molecule registered a Shoot-DW of 3.9 g and a Shoot-FW of 40.6 g. Moreover, under “15 g ai/ha foliar spray”, the “Shoot-DW % of control” value was 138.2 % of control and the “Shoot-FW % of control” value is 132.8 % of control.
